Results on one compound are retold here after patent publication US4288629A, “1-Hydroxymethyl-11-deoxy-15-hydroxy-prosten-1-ol-derivatives” (American Cyanamid Company, priority 1980, dated 1981).

Common to all, as to type: in vivo
The subject of one experiment is 5-HT. Put plainly: KONZETT DATA, 5-HT. The note with it: spasmogen 5-HT.
Another experiment deals with Hist. Put plainly: KONZETT DATA, Hist. The settings on record: spasmogen Hist.
In a further experiment the test system is Ach. Put plainly: KONZETT DATA, Ach. The note with it: spasmogen Ach.

In the case of `CCCCCC(C)(O)/C=C/C1C(O)CC(=O)C1C/C=C\CCCCO` (racemic) [dl-1,11,15-trihydroxymethyl-9-oxo-15-methyl-5-cis-13-trans prostadiene], the “5-HT (ED50 g/kg)” value with 5-HT came out at 0.0083 g/kg. Also, in the experiment on Hist, the “Hist (ED50 g/kg)” value was determined as 0.00075 g/kg. The “Ach (ED50 g/kg)” value in the experiment on Ach is 0.0043 g/kg.
